Source: patent US20120071475A1, “UREA DERIVATIVES HAVING PI3K-INHIBITING ACTIVITY” (SHIONOGI & CO., LTD., priority 2009, published 2012)
In brackets after ≈: the same amount, converted by molar mass. Like-named read-outs stand apart in the source and are kept apart here.

Key:
[1] = Solubility test (artificial intestinal juice pH 6.8, 1% DMSO); format: physicochemical; conditions: artificial intestinal juice pH 6.8 with 1% DMSO, fassgf or other biorelevant, kinetic from dmso stock, 25° C.
Method: The solubility of a compound was determined under a condition in which 1% DMSO was added. 10 mmol/L compound solution was prepared using DMSO, and then 6 μL of the compound solution was added to 594 μL of artificial intestinal juice in pH 6.8 (to 250 mL of 0.2 mol/L potassium dihydrogen phosphate reagent solution was added 118 mL of 0.2 mol/L NaOH reagent solution and water to provide a final volume of 1000 mL). After standing at 25° C. for 16 hours, the mixed solution was filtered with suction. The filtrate was diluted twice with methanol/water (1/1), and then a concentration in the filtration was measured with HPLC or LC/MS/MS by the absolute calibration method.

PI3Kγ [2] = target: T1, PI3Kγ (Homo sapiens, UniProt P48736); assay: PI3Kγ inhibitory activity (PI3-kinase HTRF assay, inhibition ratio); format: biochemical; conditions: 0.5 h, compound at 10 μmol/L; read-out: PI3Kg Inhibition Ratio % (10 μM)
Summary of the method: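 Compound at 10 μmol/L preincubated 10 min with PI3Kγ and PIP2 substrate, then reacted with ATP for 30 minutes at room temperature; the compound, substrate and ATP figures as printed (40 μmol/L each) are solution concentrations. HTRF 665/620 nm ratio read after 18 hours. Inhibition ratio calculated against no-compound (100%) and no-enzyme (0%) controls.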

PI3Kγ [3] = target: T1, PI3Kγ; assay: PI3Kγ inhibitory activity (Ki value); format: biochemical
Summary of the method: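 Ki derived from IC50 measured at final compound levels of 50–0.05 μmol/L (HTRF read-out; 40 μmol/L ATP, 10 mmol/L MgCl2, 5 mmol/L DTT), IC50 by logistic or two-point linear fit. ATP Km from Lineweaver-Burk over 0.625–80 μmol/L ATP; Ki = IC50/(1+[ATP]/Km).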

PI3Kα = PI3Kα (Homo sapiens, UniProt P42336); assay: PI3Kα inhibitory activity (Ki value); format: biochemical
Method: According to Example 2 above, after 80 μg/mL PI-3 kinase γ of the enzyme solution (80 μg/mL PI-3 kinase γ, 10 mmol/L MgCl2, 5 mmol/L DTT) was changed to 0.8 μg/mL PI-3 kinase α, an inhibition ratio was calculated by a method similar to the method for measuring PI3Kγ inhibitory activity, and then defined as the PI3Kα inhibitory activity.
The α inhibitory activity (Ki value) of a compound was evaluated according to the following procedure.
According to Example 4 above, a Km value for PI3Kα was determined to calculate a Ki value.

PI3Kβ = PI3Kβ (Homo sapiens, UniProt P42338); assay: PI3Kβ inhibitory activity (Ki value); format: biochemical
Method: According to Example 2 above, after 80 μg/mL PI-3 kinase γ of the enzyme solution (80 μg/mL PI-3 kinase γ, 10 mmol/L MgCl2, 5 mmol/L DTT) was changed to 60 μg/mL PI-3 kinase β, a method similar to the method for measuring PI3Kγ inhibitory activity was used to calculate an inhibition ratio, which was defined as the PI3Kβ inhibitory activity.
According to Example 4 above, a Km value for PI3Kβ was determined to calculate a Ki value.

PI3Kδ = PI3Kδ (Homo sapiens, UniProt O00329); assay: PI3Kδ inhibitory activity (Ki value); format: biochemical
Method: According to Example 2 above, after 80 μg/mL PI-3 kinase γ of the enzyme solution (80 μg/mL PI-3 kinase γ, 10 mmol/L MgCl2, 5 mmol/L DTT) was changed to 158 μg/mL PI-3 kinase δ, a method similar to the method for measuring PI3Kγ inhibitory activity was used to calculate an inhibition ratio, which was defined as the PI3Kδ inhibitory activity.
According to Example 4 above, a Km value for PI3Kδ was determined to calculate a Ki value.

CYP3A4 = target: T2, CYP3A4 (Homo sapiens, UniProt P08684); assay: CYP3A4 fluorescence MBI test; format: in vitro ADME; conditions: difference in IC50 with 0 or 30 minutes pre-reaction; CYP3A4 expressed in E. coli, substrate 7-BFC
T2 construct: host or cells: E. coli
Summary of the method: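 E. coli-expressed CYP3A4 debenzylating 5.6 μmol/L 7-BFC to fluorescent 7-HFC (Ex 420/Em 535 nm) in K-Pi pH 7.4 at 25° C, 15 min reaction. NADPH pre-incubation of 0 or 30 min, with 10-fold dilution before reaction. IC50 from 0.625–20 μmol/L (6 points); (+) for an IC50 shift ≥5 μmol/L, (−) for ≤3 μmol/L.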

[4] = Metabolic stability test (pooled human liver microsome); format: in vitro ADME; conditions: percentage of test compound remained after 30 minutes, pooled human liver microsome 0.5 mg protein/mL, 1 mmol/L NADPH, 37° C.; for hLMS_ox(at 0.5 μM) %: compound 0.5 μM
Summary of the method: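 Pooled human liver microsomes (0.5 mg protein/mL) incubated with compound and 1 mmol/L NADPH at 37° C. in pH 7.4 Tris buffer for 0 or 30 min. Parent quantified by LC/MS/MS after methanol/acetonitrile quench; value is % remaining at 30 min versus 0 min.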

hERG channel (IKr) = target: T3, hERG channel (IKr) (Homo sapiens, UniProt Q12809); assay: hERG test (whole-cell patch-clamp, IKr in HEK293 cells); format: cell-based; conditions: human, HEK293 cells expressing hERG channel, pH 7.4, inhibition of maximum tail current (IKr), compound 1 μM
T3 construct: expressed in transfected cells; host or cells: HEK293
Summary of the method: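 hERG-expressing HEK293 cells, automated whole-cell patch clamp: hold −80 mV, +50 mV for 2 s, then −50 mV for 2 s to record IKr tail current. Compound in extracellular solution (pH 7.4) for 10 min at room temperature; inhibition of maximum tail current calculated versus pre-application and compared with 0.1% DMSO vehicle.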

AKT phosphorylation = AKT phosphorylation inhibitory activity in MCP-1 stimulated THP-1 cells (sandwich ELISA); format: cell-based, Human; conditions: Homo sapiens, compound at 1 μmol/L, MCP-1 stimulation, read-out: AKT phosphorylation inhibition ratio
Summary of the method: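 THP-1 cells (6.7×10^6/mL in HBSS) were preincubated with compound at 1 μmol/L for 5 min at 37 °C, then stimulated for 60 s with HBSS containing 1.2 μg/mL MCP-1 and lysed. Phospho-Akt Ser473/AKT1 sandwich ELISA was read at A450. % inhibition: no compound = 100% activity, no MCP-1 = 0%.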

[5] = class symbols, read-out: PI3K γ Ki
[6] = class symbols, read-out: PI3K α Ki
[7] = class symbols, read-out: PI3K β Ki
[8] = class symbols, read-out: PI3K δ Ki

T2 sequence (P08684 whole entry): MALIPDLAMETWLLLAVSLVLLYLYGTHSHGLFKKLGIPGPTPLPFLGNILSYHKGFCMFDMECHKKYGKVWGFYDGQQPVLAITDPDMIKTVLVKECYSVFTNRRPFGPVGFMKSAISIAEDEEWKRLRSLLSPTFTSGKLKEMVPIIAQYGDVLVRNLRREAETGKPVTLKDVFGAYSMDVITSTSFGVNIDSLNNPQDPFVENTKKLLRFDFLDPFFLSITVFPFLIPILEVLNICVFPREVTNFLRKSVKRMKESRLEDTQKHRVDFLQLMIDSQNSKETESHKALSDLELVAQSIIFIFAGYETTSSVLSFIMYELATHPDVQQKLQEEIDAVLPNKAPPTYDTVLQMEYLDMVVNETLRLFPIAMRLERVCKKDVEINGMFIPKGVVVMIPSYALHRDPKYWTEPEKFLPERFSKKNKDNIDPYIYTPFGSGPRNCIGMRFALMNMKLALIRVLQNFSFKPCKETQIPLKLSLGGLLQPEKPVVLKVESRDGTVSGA
T1 sequence (P48736 whole entry, species assumed): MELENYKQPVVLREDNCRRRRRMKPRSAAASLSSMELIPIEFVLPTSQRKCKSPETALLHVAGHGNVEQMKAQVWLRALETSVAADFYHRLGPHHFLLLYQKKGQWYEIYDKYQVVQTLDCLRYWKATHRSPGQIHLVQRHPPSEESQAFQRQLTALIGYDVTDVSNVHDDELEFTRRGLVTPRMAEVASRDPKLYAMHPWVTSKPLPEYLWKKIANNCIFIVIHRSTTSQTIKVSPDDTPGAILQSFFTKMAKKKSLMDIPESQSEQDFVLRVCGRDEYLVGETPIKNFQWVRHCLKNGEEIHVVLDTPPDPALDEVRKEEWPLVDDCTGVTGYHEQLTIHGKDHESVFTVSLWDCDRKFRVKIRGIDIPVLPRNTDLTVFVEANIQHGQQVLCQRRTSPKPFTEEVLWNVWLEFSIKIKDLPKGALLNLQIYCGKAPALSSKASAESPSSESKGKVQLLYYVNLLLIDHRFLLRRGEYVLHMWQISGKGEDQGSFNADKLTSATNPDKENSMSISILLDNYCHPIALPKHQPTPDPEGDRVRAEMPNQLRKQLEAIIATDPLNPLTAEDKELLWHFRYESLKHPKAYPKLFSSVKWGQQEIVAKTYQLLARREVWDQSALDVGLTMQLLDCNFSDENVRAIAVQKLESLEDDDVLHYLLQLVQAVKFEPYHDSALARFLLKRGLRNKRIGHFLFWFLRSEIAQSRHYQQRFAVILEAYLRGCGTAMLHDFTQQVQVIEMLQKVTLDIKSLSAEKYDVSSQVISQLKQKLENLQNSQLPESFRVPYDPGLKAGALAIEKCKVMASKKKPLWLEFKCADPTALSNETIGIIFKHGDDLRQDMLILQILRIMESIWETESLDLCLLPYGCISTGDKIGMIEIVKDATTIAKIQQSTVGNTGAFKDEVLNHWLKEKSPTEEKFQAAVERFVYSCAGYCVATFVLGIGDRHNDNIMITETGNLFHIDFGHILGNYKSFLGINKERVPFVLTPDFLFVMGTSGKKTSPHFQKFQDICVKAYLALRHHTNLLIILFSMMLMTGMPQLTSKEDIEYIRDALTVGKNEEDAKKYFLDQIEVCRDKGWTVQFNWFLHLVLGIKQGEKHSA
Chain of PI3Kα (P42336 whole entry, species assumed): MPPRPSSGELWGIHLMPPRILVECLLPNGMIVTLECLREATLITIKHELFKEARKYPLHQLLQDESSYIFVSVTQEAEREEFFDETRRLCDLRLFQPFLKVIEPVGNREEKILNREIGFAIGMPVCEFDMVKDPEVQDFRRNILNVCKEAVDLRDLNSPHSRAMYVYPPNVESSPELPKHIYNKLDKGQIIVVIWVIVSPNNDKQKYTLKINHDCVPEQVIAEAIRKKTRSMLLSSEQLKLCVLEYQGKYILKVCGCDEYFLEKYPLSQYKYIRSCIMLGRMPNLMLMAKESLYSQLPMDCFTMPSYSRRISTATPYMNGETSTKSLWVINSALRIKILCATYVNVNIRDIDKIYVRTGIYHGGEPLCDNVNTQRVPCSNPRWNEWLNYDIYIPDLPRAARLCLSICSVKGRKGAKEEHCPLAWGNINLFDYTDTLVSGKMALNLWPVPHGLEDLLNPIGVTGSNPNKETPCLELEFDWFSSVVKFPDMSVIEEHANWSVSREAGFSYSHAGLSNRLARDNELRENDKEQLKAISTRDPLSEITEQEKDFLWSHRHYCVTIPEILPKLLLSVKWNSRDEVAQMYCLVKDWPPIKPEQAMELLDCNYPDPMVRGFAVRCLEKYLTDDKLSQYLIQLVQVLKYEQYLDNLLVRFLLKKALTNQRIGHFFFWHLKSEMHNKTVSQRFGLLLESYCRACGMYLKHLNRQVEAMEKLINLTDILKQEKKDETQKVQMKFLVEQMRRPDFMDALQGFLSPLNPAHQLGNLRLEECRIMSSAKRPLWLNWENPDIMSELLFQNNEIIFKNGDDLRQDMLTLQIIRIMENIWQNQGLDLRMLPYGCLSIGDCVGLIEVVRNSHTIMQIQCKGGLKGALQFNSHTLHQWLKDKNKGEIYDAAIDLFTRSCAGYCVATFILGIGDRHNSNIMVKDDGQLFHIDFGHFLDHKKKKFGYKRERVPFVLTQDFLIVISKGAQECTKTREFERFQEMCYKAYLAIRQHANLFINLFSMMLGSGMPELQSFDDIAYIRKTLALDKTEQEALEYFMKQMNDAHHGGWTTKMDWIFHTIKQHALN
Chain of PI3Kα (P27986 whole entry partner, species assumed): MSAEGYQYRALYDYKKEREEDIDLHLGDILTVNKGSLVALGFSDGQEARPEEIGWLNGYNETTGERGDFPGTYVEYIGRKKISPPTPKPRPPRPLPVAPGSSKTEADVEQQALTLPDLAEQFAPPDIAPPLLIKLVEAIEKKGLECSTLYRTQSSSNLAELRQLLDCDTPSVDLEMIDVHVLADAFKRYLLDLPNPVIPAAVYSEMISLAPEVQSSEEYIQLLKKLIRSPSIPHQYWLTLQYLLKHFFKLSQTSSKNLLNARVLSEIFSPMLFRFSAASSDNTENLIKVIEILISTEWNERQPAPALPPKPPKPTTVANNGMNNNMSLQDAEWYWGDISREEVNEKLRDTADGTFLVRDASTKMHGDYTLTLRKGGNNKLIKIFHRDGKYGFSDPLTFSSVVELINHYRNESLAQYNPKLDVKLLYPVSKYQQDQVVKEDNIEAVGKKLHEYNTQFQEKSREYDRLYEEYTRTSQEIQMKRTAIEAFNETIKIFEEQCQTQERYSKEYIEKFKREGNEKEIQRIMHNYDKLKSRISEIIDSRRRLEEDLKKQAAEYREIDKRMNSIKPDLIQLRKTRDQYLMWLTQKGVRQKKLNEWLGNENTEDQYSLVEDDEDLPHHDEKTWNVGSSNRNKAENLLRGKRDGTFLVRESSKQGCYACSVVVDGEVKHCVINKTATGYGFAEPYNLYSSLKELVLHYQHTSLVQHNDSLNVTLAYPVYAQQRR
Chain of PI3Kδ (O00329 whole entry, species assumed): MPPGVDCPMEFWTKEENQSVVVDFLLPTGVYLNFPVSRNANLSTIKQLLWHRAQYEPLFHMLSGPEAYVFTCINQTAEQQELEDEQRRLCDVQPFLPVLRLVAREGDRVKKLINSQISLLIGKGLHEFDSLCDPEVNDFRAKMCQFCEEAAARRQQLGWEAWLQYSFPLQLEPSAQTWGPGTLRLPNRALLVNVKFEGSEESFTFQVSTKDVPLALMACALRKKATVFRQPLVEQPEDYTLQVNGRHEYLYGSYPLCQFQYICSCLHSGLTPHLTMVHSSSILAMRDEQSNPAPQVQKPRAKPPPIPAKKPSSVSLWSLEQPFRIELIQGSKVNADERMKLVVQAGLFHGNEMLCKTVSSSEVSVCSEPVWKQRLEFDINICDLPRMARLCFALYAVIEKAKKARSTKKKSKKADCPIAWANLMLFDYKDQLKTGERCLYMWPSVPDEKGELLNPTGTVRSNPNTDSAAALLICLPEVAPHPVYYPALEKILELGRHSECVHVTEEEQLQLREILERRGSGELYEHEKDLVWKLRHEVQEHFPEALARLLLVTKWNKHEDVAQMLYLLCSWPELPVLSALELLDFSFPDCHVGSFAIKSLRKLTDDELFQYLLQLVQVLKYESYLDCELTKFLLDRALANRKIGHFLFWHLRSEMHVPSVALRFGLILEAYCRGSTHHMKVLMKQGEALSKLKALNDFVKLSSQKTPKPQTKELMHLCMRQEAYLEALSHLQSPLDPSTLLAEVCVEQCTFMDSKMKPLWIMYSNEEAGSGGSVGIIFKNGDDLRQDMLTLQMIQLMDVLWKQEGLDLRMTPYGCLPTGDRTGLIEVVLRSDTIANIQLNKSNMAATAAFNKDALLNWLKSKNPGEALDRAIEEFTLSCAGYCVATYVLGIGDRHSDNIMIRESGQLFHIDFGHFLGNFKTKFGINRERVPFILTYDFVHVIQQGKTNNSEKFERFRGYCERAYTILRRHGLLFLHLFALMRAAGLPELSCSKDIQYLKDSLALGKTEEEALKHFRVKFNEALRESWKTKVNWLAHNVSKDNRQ
Chain of PI3Kδ (P27986 whole entry partner, species assumed): as the sequence (P27986 whole entry partner, species assumed) above

Structure (SMILES) | solubility at 16 h [1] [µM] | inhibition at 10 µM (PI3Kγ [2]) [%] | Ki (PI3Kγ [3]; [5]) [µM] | Ki (PI3Kγ [3]; read-out: PI3Kγ Ki value) [µM] | Ki (PI3Kα; [6]) [µM] | Ki (PI3Kβ; [7]) [µM] | Ki (PI3Kδ; [8]) [µM] | hLMS_ox(at 0.5 μM) % [4] [%] | also measured
COc1cc(N2CCc3nc(NC(=O)NN4CCC[C@H]4C(=O)NC(C)C)sc3C2)nc(OC)n1 [Compound I-179] | > 50 |  |  |  |  |  |  |  | 
COc1cc(N2CCc3nc(NC(=O)Nc4ccccc4C4=NC(C)(C)CO4)sc3C2)nc(OC)n1 [Compound I-14] |  | 94 | ≤ 0.3 | 0.054 | > 3 | > 3 | > 3 |  | MBI (CYP3A4): (−) (When 3 μmol/L or less, the compound is shown as (−))
CC(C)NC(=O)c1ccccc1NC(=O)Nc1cn2nc(-c3cccc(S(C)(=O)=O)c3)ccc2n1 [Compound I-125] |  |  | ≤ 0.03 | 0.013 | ≤ 3 | ≤ 0.3 | ≤ 0.3 | 103 | inhibition at 10 min, 1 µM (hERG channel (IKr)): 1.3%
COc1nc(Cl)cc(N2CCc3nc(NC(=O)Nc4ccccc4C(=O)NC4CCCC4O)sc3C2)n1 (stereo not shown) [Compound I-174] |  | ≥ 95 | ≤ 0.03 | 0.0036 | > 3 | ≤ 3 | ≤ 3 |  | inhibition at 1 µM (AKT phosphorylation): 81%
COc1cc(N2CCc3nc(NC(=O)Nc4ccccc4OCCC(C)(C)C(=O)O)sc3C2)nc(OC)n1 [Compound I-100] | 34.4 (≈ 18.7 µg/mL) | ≥ 95 |  |  |  |  |  | 89.3 | 
COc1cncc(-c2ccc3nc(NC(=O)Nc4ccccc4OCCC(C)C)nn3c2)c1 [Compound I-216] |  | ≥ 95 | ≤ 0.3 | 0.23 | > 3 | ≤ 3 | > 3 |  | 
COc1cc(N2CCc3nc(NC(=O)NC4=C(C(=O)NC(C)(C)C)CCC4)sc3C2)nc(OC)n1 [Compound I-28] |  | ≥ 95 | ≤ 0.3 | 0.047 | > 3 | ≤ 3 | ≤ 3 |  | 
COc1cc(N2CCc3nc(NC(=O)Nc4ccccc4OCCN(C)C)sc3C2)nc(OC)n1 [Compound I-76] | 26.3 (≈ 13.1 µg/mL) |  |  |  |  |  |  |  | 
COc1cc(C2(F)CCc3nc(NC(=O)Nc4ccccc4C(=O)NC(C)C)sc3C2)nc(OC)n1 (stereo not shown) [Compound I-83] |  | ≥ 95 | ≤ 0.3 | 0.11 | > 3 | > 3 | > 3 | 89.1 | Ki (PI3Kα; read-out: PI3Kα Ki value): > 13 µM; Ki (PI3Kβ; read-out: PI3Kβ Ki value): > 12 µM; Ki (PI3Kδ; read-out: PI3Kδ Ki value): > 12 µM; inhibition at 10 min, 1 µM (hERG channel (IKr)): 3.3%
Cc1cc(N2Cc3sc(NC(=O)Nc4ccccc4C(=O)NC(C)C)nc3C(C)C2)nc(Cl)n1 (stereo not shown) [Compound I-229] |  | ≥ 95 | ≤ 0.03 | 0.0094 | > 3 | > 3 | > 3 |  | 
COc1cc(N2CCc3nc(NC(=O)Nc4ccccc4C(=O)NC(C)CO)sc3C2)cnc1OC (stereo not shown) [Compound I-104] | 39.6 (≈ 20.3 µg/mL) |  |  |  |  |  |  | 103 | 
COc1cc(N2CCc3nc(NC(=O)Nc4ccccc4C(=O)N(C)C(C)C)sc3C2)nc(OC)n1 [Compound I-13] | 15.4 (≈ 7.88 µg/mL) | ≥ 95 |  |  |  |  |  |  | 
COc1cc(-c2ccc3nc(NC(=O)Nc4ccccc4OCCC(C)C)sc3c2)nc(OC)n1 [Compound I-213] |  |  | ≤ 0.3 | 0.058 | > 3 | > 3 | > 3 |  | 
COc1cncc(-c2ccc3nc(NC(=O)Nc4ccccc4OCCC(C)C)sc3n2)c1 [Compound I-225] |  | ≥ 95 | ≤ 0.03 | 0.015 | > 3 | ≤ 0.3 | > 3 |  | MBI (CYP3A4): (−) (When 3 μmol/L or less, the compound is shown as (−))
C[C@@H](CO)NC(=O)c1ccccc1NC(=O)Nc1nc2c(s1)CN(c1cncc(C#N)c1)CC2 [Compound I-189] | 10.3 (≈ 4.92 µg/mL) | 92 |  |  |  |  |  |  | MBI (CYP3A4): (−) (When 3 μmol/L or less, the compound is shown as (−))
COc1cc(N2CCc3nc(NC(=O)Nc4ccsc4C(=O)O)sc3C2)nc(OC)n1 [Compound I-4] | 12.3 (≈ 5.69 µg/mL) | 72 |  |  |  |  |  |  | hLMS_ox(at 2 μM) % ([4]; compound 2 μM): 103%
CC(C)NC(=O)c1ccccc1NC(=O)Nc1nc2c(s1)CN(c1cc[nH]c(=O)c1)CC2 [Compound I-178] | 10 (≈ 4.53 µg/mL) | ≥ 95 |  |  |  |  |  | 97.9 | 
CC(CO)NC(=O)c1ccccc1NC(=O)Nc1nc2c(s1)CN(c1ccc(F)cn1)CC2 (stereo not shown) [Compound I-120] | 17.5 (≈ 8.23 µg/mL) | ≥ 95 |  |  |  |  |  | 92.3 | 
CC(=O)c1cccc(-c2cc(NC(=O)Nc3ccccc3C(=O)NC(C)C)nn2C)c1 [Compound I-227] | 36.8 (≈ 15.4 µg/mL) | 87 |  |  |  |  |  |  | 
